Results reported in US20230365585A1, “BENZODIAZEPINE DERIVATIVES USEFUL IN TREATING A RESPIRATORY SYNCYTIAL VIRUS INFECTION” (priority 2020, published 2023).

Experiments:
RSV A2 = assay: RSV plaque reduction assay; format: cell-based, RSV (RSV A2 ECACC, 0709161v); conditions: human respiratory syncytial virus, HepG2, 48 h, Hep-G2 cells, RSV A2, 2 days; mean of at least two experiments
Protocol: Compounds were subjected to RSV plaque reduction assays according to the following protocol.
Hep-G2 cells (ECACC, 85011430) were passaged in flasks and seeded in 24-well plates in DMEM containing antibiotics and supplemented with 10% FBS. During inoculation and subsequent incubation, cells were cultured in DMEM containing 2% FBS. 100 plaque forming unit/well of RSV (RSV A2 ECACC, 0709161v) was mixed with eight serial dilutions of compound. Subsequently, 100 µL of the virus/compound mixtures was added to confluent Hep-G2 cell monolayers. The cells and virus/compound mixtures were incubated at 37° C. in a humidified 5% CO2 incubator for 2 h prior to removal of the inoculum and addition of 1 mL of overlay (DMEM containing 2% FBS and 0.8% CMC) containing compound dilutions. The cells and were incubated at 37° C. in a humidified 5% CO2 incubator for 2 days.
Cells were washed with PBS before adding 75%/25% v/v EtOH/MeOH, for 3 min. Fix ative was removed and plates were washed with PBS. A pre-titrated amount of the primary antibody was added in 200 µL PBS/2% milk powder, and plates incubated for 90 min at 37° C. The plates were washed 3 times with PBS/0.05% Tween20 before addition of rabbit anti-goat horse radish peroxidase in 200 µL PBS/2% milk powder, and incubated for 1 h at 37° C. Following three wash steps with PBS/0.05% Tween20, 200 µL ready-to-use TrueBlue was added and plates were incubated at rt for 10-15 min before washing with water. After removal of water, plates were air-dried in the dark.
(§1) Plates were scanned and analysed using the Immunospot S6 Macro analyser, which is equipped with BioSpot analysis software for counting immunostained plaques (virospots). Plaque counts were used to calculate % infection relative to the mean of the plaque count in the virus control wells for RSV. […] Plaque EC50 and cell toxicity CC50 values are a mean of at least two experiments and figures are rounded to whole units.

Cell cytotoxicity CC50 = format: cell-based; conditions: human; mean of at least two experiments
Description: as §1

Compound	EC50 (RSV A2) [nM]	CC50 (Cell cytotoxicity CC50) [µM]
CC(C)Nc1ccc(-c2nn3c(c2C(=O)N[C@H]2N=C(c4ccccc4)c4ccccc4NC2=O)OC(C)CCC3)c(F)n1 (stereo partly drawn) [Example 12, 2-[2-Fluoro-6-(propan-2-ylamino)pyridin-3-yl]-5-methyl-N-[(3S)-2-oxo-5-phenyl-1,3-dihydro-1,4-benzodiazepin-3-yl]-5,6,7,8-tetrahydropyrazolo[5,1-b][1,3]oxazepine-3-carboxamide]	34	> 25
CCNc1ccc(-c2nn3c(c2C(=O)N[C@H]2N=C(c4ccccc4)c4cccc(F)c4NC2=O)OC(C)CCC3)c(F)n1 (stereo partly drawn) [Example 11, 2-[6-(Ethylamino)-2-fluoropyridin-3-yl]-N-[(3S)-9-fluoro-2-oxo-5-phenyl-1,3-dihydro-1,4-benzodiazepin-3-yl]-5-methyl-5,6,7,8-tetrahydropyrazolo[5,1-b][1,3]oxazepine-3-carboxamide]	18	> 25
O=C(NC1N=C(c2ccccc2)c2cccc(F)c2NC1=O)c1c(-c2ccccc2F)nn2c1OCC(N1CCOCC1)CC2 (stereo in doubt) [Example 29, 2-(2-Fluorophenyl)-6-morpholin-4-yl-N-[(3R)-9-fluoro-2-oxo-5-phenyl-1,3-dihydro-1,4-benzodiazepin-3-yl]-5,6,7,8-tetrahydropyrazolo[5,1-b][1,3]oxazepine-3-carboxamide]	154	> 25
O=C(N[C@H]1N=C(c2ccccc2)c2cccc(F)c2NC1=O)c1c(-c2ccccc2)nn2c1OCCCC2 [Example 8, N-[(3S)-9-Fluoro-2-oxo-5-phenyl-1,3-dihydro-1,4-benzodiazepin-3-yl]-2-phenyl-5,6,7,8-tetrahydropyrazolo[5,1-b][1,3]oxazepine-3-carboxamide]	59	> 16.7
O=C(N[C@H]1N=C(c2ccccc2)c2ccccc2NC1=O)c1c(-c2ccc(NC3CC3)nc2F)nn2c1OCCCC2 [Example 9, 2-[6-(Cyclopropylamino)-2-fluoropyridin-3-yl]-N-[(3S)-2-oxo-5-phenyl-1,3-dihydro-1,4-benzodiazepin-3-yl]-5,6,7,8-tetrahydropyrazolo[5,1-b][1,3]oxazepine-3-carboxamide]	24	> 25
CC1CCCn2nc(-c3ccccc3F)c(C(=O)N[C@H]3N=C(c4ccccc4)c4ccccc4NC3=O)c2O1 (stereo partly drawn) [Example 18, 2-(2-Fluorophenyl)-5-methyl-N-[(3S)-2-oxo-5-phenyl-1,3-dihydro-1,4-benzodiazepin-3-yl]-5,6,7,8-tetrahydropyrazolo[5,1-b][1,3]oxazepine-3-carboxamide]	37	> 25
O=C(N[C@H]1N=C(c2ccccc2)c2cccc(F)c2NC1=O)c1c(-c2ccccc2F)nn2c1O[C@@H]1CC[C@H]2C1 (single isomer, unassigned) [Example 19-1, (1S*,8R*)-N-[(3 S)-9-fluoro-2-oxo-5-phenyl-2,3-dihydro-1H-1,4-benzodiazepin-3-yl]-4-(2-fluorophenyl)-7-oxa-2,3-diazatricyclo[6.2.1.0^2,6]undeca-3,5-diene-5-carboxamide]	49	> 25
CC(C)Nc1ccc(-c2nn3c(c2C(=O)N[C@H]2N=C(c4ccccc4)c4cccc(F)c4NC2=O)OC(C)CCC3)c(F)n1 (stereo partly drawn) [Example 13, N-[(3S)-9-fluoro-2-oxo-5-phenyl-1,3-dihydro-1,4-benzodiazepin-3-yl]-2-[2-fluoro-6-(propan-2-ylamino)pyridin-3-yl]-5-methyl-5,6,7,8-tetrahydropyrazolo[5,1-b][1,3]oxazepine-3-carboxamide]	34	> 25
O=C(N[C@H]1N=C(c2ccccc2)c2ccccc2NC1=O)c1c(-c2ccccc2)nn2c1OCCCC2 [Example 1, N-[(3S)-2-oxo-5-phenyl-1,3-dihydro-1,4-benzodiazepin-3-yl]-2-phenyl-5,6,7,8-tetrahydropyrazolo[5,1-b][1,3]oxazepine-3-carboxamide]	79	> 25
CC1CCCn2nc(-c3ccc(F)cc3F)c(C(=O)N[C@H]3N=C(c4ccccc4)c4ccccc4NC3=O)c2O1 (single isomer, unassigned) [Example 16-1, (5R*)-2-(2,4-difluorophenyl)-5-methyl-N-[(3S)-2-oxo-5-phenyl-1,3-dihydro-1,4-benzodiazepin-3-yl]-5,6,7,8-tetrahydropyrazolo[5,1-b][1,3]oxazepine-3-carboxamide]	28	> 25
CCc1ccc(-c2nn3c(c2C(=O)N[C@H]2N=C(c4ccccc4)c4cccc(F)c4NC2=O)O[C@H]2CC[C@@H]3C2)cn1 (single isomer, unassigned) [Example 30-2, (1R*,8S*)-4-(6-ethylpyridin-3-yl)-N-[(3S)-9-fluoro-2-oxo-5-phenyl-2,3-dihydro-1H-1,4-benzodiazepin-3-yl]-7-oxa-2,3-diazatricyclo[6.2.1.02,6]undeca-3,5-diene-5-carboxamide]	63	> 25
CC1(C)CCCn2nc(-c3ccccc3F)c(C(=O)N[C@H]3N=C(c4ccccc4)c4cccc(F)c4NC3=O)c2O1 [Example 6, N-[(3S)-9-Fluoro-2-oxo-5-phenyl-1,3-dihydro-1,4-benzodiazepin-3-yl]-2-(2-fluorophenyl)-5,5-dimethyl-7,8-dihydro-6H-pyrazolo[5,1-b][1,3]oxazepine-3-carboxamide]	78	> 25
CCC1CCCn2nc(-c3ccc(C)nc3)c(C(=O)N[C@H]3N=C(c4ccccc4)c4cccc(F)c4NC3=O)c2O1 (some centres unmarked) [Example 27, 5-Ethyl-N-[(3 S)-9-fluoro-2-oxo-5-phenyl-1,3-dihydro-1,4-benzodiazepin-3-yl]-2-(6-methylpyridin-3-yl)-5,6,7,8-tetrahydropyrazolo[5,1-b][1,3]oxazepine-3-carboxamide]	394	> 25
CC1CCCn2nc(-c3ccc(F)cc3F)c(C(=O)N[C@H]3N=C(c4ccccc4)c4cccc(F)c4NC3=O)c2O1 (single isomer, unassigned) [Example 17-1, (5R*)-2-(2,4-difluorophenyl)-N-[(3 S)-9-fluoro-2-oxo-5-phenyl-1,3-dihydro-1,4-benzodiazepin-3-yl]-5-methyl-5,6,7,8-tetrahydropyrazolo[5,1-b][1,3]oxazepine-3-carboxamide]	19	> 25
CC(C)Nc1ccc(-c2nn3c(c2C(=O)N[C@H]2N=C(c4ccccc4)c4ccccc4NC2=O)OC(C)CCC3)c(F)n1 (single isomer, unassigned) [Example 12-1, (5R*)-2-[2-fluoro-6-(propan-2-ylamino)pyridin-3-yl]-5-methyl-N-[(3S)-2-oxo-5-phenyl-1,3-dihydro-1,4-benzodiazepin-3-yl]-5,6,7,8-tetrahydropyrazolo[5,1-b][1,3]oxazepine-3-carboxamide]	35	> 25
CC(C)Nc1ccc(-c2nn3c(c2C(=O)N[C@H]2N=C(c4ccccc4)c4cccc(F)c4NC2=O)O[C@H]2CC[C@@H]3C2)cn1 (single isomer, unassigned) [Example 31-2, (1R*,8S*)-N-[(3S)-9-fluoro-2-oxo-5-phenyl-2,3-dihydro-1H-1,4-benzodiazepin-3-yl]-4-{6-[(propan-2-yl)amino]pyridin-3-yl}-7-oxa-2,3-diazatricyclo[6.2.1.02,6]undeca-3,5-diene-5-carboxamide]	94	> 25
Cc1cncc(-c2nn3c(c2C(=O)N[C@H]2N=C(c4ccccc4)c4ccccc4NC2=O)OCCCC3)c1 [Example 3, 2-(5-Methylpyridin-3-yl)-N-[(3S)-2-oxo-5-phenyl-1,3-dihydro-1,4-benzodiazepin-3-yl]-5,6,7,8-tetrahydropyrazolo[5,1-b][1,3]oxazepine-3-carboxamide]	256	> 25
CCNc1ccc(-c2nn3c(c2C(=O)N[C@H]2N=C(c4ccccc4)c4ccccc4NC2=O)OC(C)CCC3)c(F)n1 (single isomer, unassigned) [Example 10-1, (5R*)-2-[6-(ethylamino)-2-fluoropyridin-3-yl]-5-methyl-N-[(3S)-2-oxo-5-phenyl-1,3-dihydro-1,4-benzodiazepin-3-yl]-5,6,7,8-tetrahydropyrazolo[5,1-b][1,3]oxazepine-3-carboxamide]	26	> 25
CCc1ccc(-c2nn3c(c2C(=O)N[C@H]2N=C(c4ccccc4)c4cccc(F)c4NC2=O)O[C@@H]2CC[C@H]3C2)cn1 (single isomer, unassigned) [Example 30-1, (1S*,8R*)-4-(6-ethylpyridin-3-yl)-N-[(3S)-9-fluoro-2-oxo-5-phenyl-2,3-dihydro-1H-1,4-benzodiazepin-3-yl]-7-oxa-2,3-diazatricyclo[6.2.1.02,6]undeca-3,5-diene-5-carboxamide]	61	> 25
